Laboratory results published in PubChem BioAssay (NCI).
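Method: 48-hour compound exposure of cells in 96-well plates, five concentrations, linear interpolation of endpoints. At the GI50, growth is halved. TGI is the concentration that stops growth completely.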

Experiments:
Experiment in all cases: NCI tumour cell line growth inhibition, 48 h
TK-10 renal = test system: TK-10 renal
K-562 leukemia = test system: K-562 leukemia
COLO 205 colon = test system: COLO 205 colon
NCI-H226 lung = test system: NCI-H226 lung
HS 578T breast = test system: HS 578T breast
OVCAR-5 ovarian = test system: OVCAR-5 ovarian
UACC-257 melanoma = test system: UACC-257 melanoma
SF-539 CNS = test system: SF-539 CNS
NCI-H23 lung = test system: NCI-H23 lung
LOX IMVI melanoma = test system: LOX IMVI melanoma
SF-295 CNS = test system: SF-295 CNS
MDA-MB-435 = test system: MDA-MB-435
SNB-19 CNS = test system: SNB-19 CNS
NCI-H522 lung = test system: NCI-H522 lung
SR leukemia = test system: SR leukemia
A498 renal = test system: A498 renal
SK-MEL-5 melanoma = test system: SK-MEL-5 melanoma
HCT-15 colon = test system: HCT-15 colon
OVCAR-3 ovarian = test system: OVCAR-3 ovarian
UACC-62 melanoma = test system: UACC-62 melanoma
SW-620 colon = test system: SW-620 colon
HT29 colon = test system: HT29 colon
SF-268 CNS = test system: SF-268 CNS
MOLT-4 leukemia = test system: MOLT-4 leukemia
U251 CNS = test system: U251 CNS
HL-60(TB) leukemia = test system: HL-60(TB) leukemia
MDA-MB-231 breast = test system: MDA-MB-231 breast
SNB-75 CNS = test system: SNB-75 CNS
OVCAR-4 ovarian = test system: OVCAR-4 ovarian
T-47D breast = test system: T-47D breast
HOP-92 NSCLC = test system: HOP-92 NSCLC
786-0 renal = test system: 786-0 renal
RXF 393 renal = test system: RXF 393 renal
KM12 colon = test system: KM12 colon
M14 melanoma = test system: M14 melanoma
DU-145 prostate = test system: DU-145 prostate
RPMI-8226 leukemia = test system: RPMI-8226 leukemia
SK-MEL-28 melanoma = test system: SK-MEL-28 melanoma
SK-MEL-2 melanoma = test system: SK-MEL-2 melanoma
EKVX NSCLC = test system: EKVX NSCLC
UO-31 renal = test system: UO-31 renal
SK-OV-3 ovarian = test system: SK-OV-3 ovarian
BT-549 breast = test system: BT-549 breast
ACHN renal = test system: ACHN renal
PC-3 prostate = test system: PC-3 prostate
HOP-62 NSCLC = test system: HOP-62 NSCLC
NCI-H460 lung = test system: NCI-H460 lung
SN12C renal = test system: SN12C renal
OVCAR-8 ovarian = test system: OVCAR-8 ovarian
IGROV1 ovarian = test system: IGROV1 ovarian
MCF7 breast = test system: MCF7 breast
HCT-116 colon = test system: HCT-116 colon
HCC-2998 colon = test system: HCC-2998 colon
NCI/ADR-RES ovarian = test system: NCI/ADR-RES ovarian
MALME-3M melanoma = test system: MALME-3M melanoma
A549 NSCLC = test system: A549 NSCLC
CCRF-CEM leukemia = test system: CCRF-CEM leukemia

In the case of `N#CC1=C(N)Oc2c(ccc3ccccc23)C1c1cc(=O)oc2ccc(Cl)cc12` (centres undefined), the GI50 (TK-10 renal) is reported as 16.9 µM, the TGI (TK-10 renal) is reported as 73.1 µM and the GI50 (K-562 leukemia) is reported as 0.375 µM. The TGI (K-562 leukemia) was greater than 100 µM, the GI50 (COLO 205 colon) was 1.95 µM and the TGI (COLO 205 colon) was 8.27 µM. The GI50 (NCI-H226 lung) was 26 µM, the TGI (NCI-H226 lung) was 81.6 µM and the GI50 (HS 578T breast) was 0.656 µM. The TGI (HS 578T breast) was 47.2 µM, the GI50 (OVCAR-5 ovarian) was 4.1 µM and the TGI (OVCAR-5 ovarian) was greater than 100 µM. The GI50 (UACC-257 melanoma) was 14.4 µM, the TGI (UACC-257 melanoma) was 91.7 µM and the GI50 (SF-539 CNS) was 0.486 µM. For the same molecule, the TGI (SF-539 CNS) was 5.57 µM, the GI50 (NCI-H23 lung) was 4.96 µM and the TGI (NCI-H23 lung) was greater than 100 µM. It also gave a GI50 (LOX IMVI melanoma) of 0.854 µM, a TGI (LOX IMVI melanoma) of 40.5 µM and a GI50 (SF-295 CNS) of 0.398 µM. For the same molecule, the TGI (SF-295 CNS) was 20.1 µM, the GI50 (MDA-MB-435) was 0.244 µM and the TGI (MDA-MB-435) was 0.947 µM. It also gave a GI50 (SNB-19 CNS) of 0.651 µM, a TGI (SNB-19 CNS) greater than 100 µM and a GI50 (NCI-H522 lung) of 0.348 µM. It also gave a TGI (NCI-H522 lung) of 2.97 µM, a GI50 (SR leukemia) of 0.449 µM and a TGI (SR leukemia) greater than 100 µM. For the same molecule, the GI50 (A498 renal) was 0.805 µM, the TGI (A498 renal) was 42.2 µM and the GI50 (SK-MEL-5 melanoma) was 0.484 µM. For the same molecule, the TGI (SK-MEL-5 melanoma) was 14.4 µM, the GI50 (HCT-15 colon) was 0.471 µM and the TGI (HCT-15 colon) was 15.8 µM. It also gave a GI50 (OVCAR-3 ovarian) of 0.386 µM, a TGI (OVCAR-3 ovarian) of 12.3 µM and a GI50 (UACC-62 melanoma) of 0.47 µM. It also gave a TGI (UACC-62 melanoma) of 41.1 µM, a GI50 (SW-620 colon) of 0.411 µM and a TGI (SW-620 colon) greater than 100 µM. The GI50 (HT29 colon) was 1.91 µM, the TGI (HT29 colon) was 6.89 µM and the GI50 (SF-268 CNS) was 2.02 µM. It also gave a TGI (SF-268 CNS) greater than 100 µM, a GI50 (MOLT-4 leukemia) of 0.887 µM and a TGI (MOLT-4 leukemia) of 87.8 µM. The GI50 (U251 CNS) was 0.535 µM, the TGI (U251 CNS) was 20.2 µM and the GI50 (HL-60(TB) leukemia) was 0.275 µM. It also gave a TGI (HL-60(TB) leukemia) of 1.51 µM, a GI50 (MDA-MB-231 breast) of 4.36 µM and a TGI (MDA-MB-231 breast) greater than 100 µM. It also gave a GI50 (SNB-75 CNS) of 2.16 µM, a TGI (SNB-75 CNS) greater than 100 µM and a GI50 (OVCAR-4 ovarian) of 4.31 µM. It also gave a TGI (OVCAR-4 ovarian) greater than 100 µM, a GI50 (T-47D breast) of 0.646 µM and a TGI (T-47D breast) of 24.1 µM. It also gave a GI50 (HOP-92 NSCLC) of 0.556 µM, a TGI (HOP-92 NSCLC) of 42 µM and a GI50 (786-0 renal) of 0.646 µM. The TGI (786-0 renal) was greater than 100 µM, the GI50 (RXF 393 renal) was 0.217 µM and the TGI (RXF 393 renal) was 1.93 µM. For the same molecule, the GI50 (KM12 colon) was 0.453 µM, the TGI (KM12 colon) was 31.4 µM and the GI50 (M14 melanoma) was 0.441 µM. The TGI (M14 melanoma) was greater than 100 µM, the GI50 (DU-145 prostate) was 4.11 µM and the TGI (DU-145 prostate) was greater than 100 µM. The GI50 (RPMI-8226 leukemia) was 1.68 µM, the TGI (RPMI-8226 leukemia) was 20 µM and the GI50 (SK-MEL-28 melanoma) was 10.6 µM. For the same molecule, the TGI (SK-MEL-28 melanoma) was 74.9 µM, the GI50 (SK-MEL-2 melanoma) was 0.972 µM and the TGI (SK-MEL-2 melanoma) was 44.7 µM. It also gave a GI50 (EKVX NSCLC) of 3.79 µM, a TGI (EKVX NSCLC) greater than 100 µM and a GI50 (UO-31 renal) of 1.82 µM. The TGI (UO-31 renal) was greater than 100 µM, the GI50 (SK-OV-3 ovarian) was 0.965 µM and the TGI (SK-OV-3 ovarian) was greater than 100 µM. It also gave a GI50 (BT-549 breast) of 1.3 µM, a TGI (BT-549 breast) of 61.8 µM and a GI50 (ACHN renal) of 1.99 µM. The TGI (ACHN renal) was 73.4 µM, the GI50 (PC-3 prostate) was 0.495 µM and the TGI (PC-3 prostate) was greater than 100 µM. It also gave a GI50 (HOP-62 NSCLC) of 0.672 µM, a TGI (HOP-62 NSCLC) greater than 100 µM and a GI50 (NCI-H460 lung) of 0.466 µM. The TGI (NCI-H460 lung) was 14 µM, the GI50 (SN12C renal) was 2.59 µM and the TGI (SN12C renal) was 45.4 µM. It also gave a GI50 (OVCAR-8 ovarian) of 1.87 µM, a TGI (OVCAR-8 ovarian) of 24 µM and a GI50 (IGROV1 ovarian) of 0.873 µM. For the same molecule, the TGI (IGROV1 ovarian) was greater than 100 µM, the GI50 (MCF7 breast) was 0.347 µM and the TGI (MCF7 breast) was 22.1 µM. It also gave a GI50 (HCT-116 colon) of 0.406 µM, a TGI (HCT-116 colon) of 23.8 µM and a GI50 (HCC-2998 colon) of 2.72 µM. For the same molecule, the TGI (HCC-2998 colon) was 19.5 µM, the GI50 (NCI/ADR-RES ovarian) was 0.522 µM and the TGI (NCI/ADR-RES ovarian) was 36.8 µM. The GI50 (MALME-3M melanoma) was 18.1 µM, the TGI (MALME-3M melanoma) was 67.8 µM and the GI50 (A549 NSCLC) was 1.38 µM. For the same molecule, the TGI (A549 NSCLC) was greater than 100 µM, the GI50 (CCRF-CEM leukemia) was 0.407 µM and the TGI (CCRF-CEM leukemia) was 58.1 µM.
